Activity calls are given as the source filed them.
Legend:
[1] = NIH3T3 cell viability loss – ATP luminescence, mouse fibroblasts, counter-screen, dose response (AID 2010); assay type: functional, cell-based;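 further: cells exposed to compound for about 90 hours before reading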
Streptococcus = assay: GAS UMAA2166 growth inhibition – luminescence, BacTiterGlo, counter-screen for streptokinase expression inhibitor project, dose response (AID 1915); assay type: functional, organism-based;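 further: potency for reduction of bacterial viability or growth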
Nonstructural protein 1 = Nonstructural protein 1 (Influenza A virus, UniProt Q194T2); assay type: functional, Influenza A virus (A/California/07/2009(H1N1))
[2] = Trypanosoma cruzi growth suppression in host cells – NIH3T3 host cells, beta-gal luminescence, confirmation (AID 2044); assay type: functional, cell-based;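 further: intracellular parasites grown in NIH/3T3 mouse fibroblasts as host cells; luminescent beta-galactosidase reporter signal from transgenic T. cruzi replicating inside host cells; inhibitors lower the luminescence signal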
[3] = tested on: Streptococcus sp. 'group A'; assay: Streptococcus pyogenes SK(-)GAS viability under kanamycin – luminescence, BacTiterGlo, confirmation, counter-screen for streptokinase expression inhibitor project, dose response (AID 1900); assay type: functional, organism-based
[4] = molecular target: T1, Rac GTPase-activating protein 1 (Homo sapiens, UniProt Q9H0H5); assay: blockers of MgcRacGAP-driven Rac1 GTP hydrolysis – biochemical, ADP Hunter fluorescence, primary and confirmatory, confirmation (AID 624330); assay type: functional
T1 sequence (Q9H0H5 whole entry): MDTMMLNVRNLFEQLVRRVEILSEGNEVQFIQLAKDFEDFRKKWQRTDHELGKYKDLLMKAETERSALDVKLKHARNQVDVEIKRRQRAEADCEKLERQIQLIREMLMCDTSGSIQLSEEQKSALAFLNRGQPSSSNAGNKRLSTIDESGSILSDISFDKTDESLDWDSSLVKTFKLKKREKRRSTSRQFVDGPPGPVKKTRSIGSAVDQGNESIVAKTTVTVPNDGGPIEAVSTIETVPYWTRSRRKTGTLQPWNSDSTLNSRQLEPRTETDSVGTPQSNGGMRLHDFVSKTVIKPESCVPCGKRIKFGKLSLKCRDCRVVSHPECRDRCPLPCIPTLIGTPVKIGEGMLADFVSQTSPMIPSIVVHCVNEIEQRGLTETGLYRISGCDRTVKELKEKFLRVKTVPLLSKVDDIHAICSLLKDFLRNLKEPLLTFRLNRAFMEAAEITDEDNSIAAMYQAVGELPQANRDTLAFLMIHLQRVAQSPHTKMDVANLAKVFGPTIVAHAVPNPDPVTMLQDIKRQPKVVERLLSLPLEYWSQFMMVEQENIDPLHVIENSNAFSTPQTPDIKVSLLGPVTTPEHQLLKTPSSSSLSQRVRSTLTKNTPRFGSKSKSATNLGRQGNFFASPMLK

[5] = viability loss in HeLa cells – cytotoxicity control for MgcRacGAP inhibitor project, dose response (AID 624300); assay type: functional
Streptokinase A = molecular target: T2, Streptokinase A (Streptococcus pyogenes serotype M1, UniProt P10520); assay: viability-normalized secreted streptokinase activity reduction – plasminogen activation absorbance, OD405, dose response (AID 1914); assay type: functional, Streptococcus pyogenes M1 GAS;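 further: secreted streptokinase activity via plasminogen activation per viability signal from cell pellet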
T2 sequence (P10520 whole entry): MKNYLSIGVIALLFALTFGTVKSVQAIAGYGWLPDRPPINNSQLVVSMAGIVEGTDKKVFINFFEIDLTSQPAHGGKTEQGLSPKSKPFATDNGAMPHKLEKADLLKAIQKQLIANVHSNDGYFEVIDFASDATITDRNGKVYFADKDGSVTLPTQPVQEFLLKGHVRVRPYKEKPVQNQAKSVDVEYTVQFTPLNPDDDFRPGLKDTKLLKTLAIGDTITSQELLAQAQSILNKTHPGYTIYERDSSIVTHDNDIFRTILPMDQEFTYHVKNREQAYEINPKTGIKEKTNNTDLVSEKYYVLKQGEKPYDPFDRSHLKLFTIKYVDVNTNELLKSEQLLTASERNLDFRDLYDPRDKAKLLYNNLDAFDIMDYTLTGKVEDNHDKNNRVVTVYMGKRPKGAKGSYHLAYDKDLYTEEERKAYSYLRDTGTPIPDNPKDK

Leucine aminopeptidase = molecular target: T3, Leucine aminopeptidase (Plasmodium falciparum 3D7, UniProt Q8IL11); assay: P. falciparum M17LAP inhibitors, primary screen, biochemical, fluorogenic H-Leu-NHMec substrate, 1536-well (AID 1619); assay type: functional
T3 sequence (Q8IL11 whole entry): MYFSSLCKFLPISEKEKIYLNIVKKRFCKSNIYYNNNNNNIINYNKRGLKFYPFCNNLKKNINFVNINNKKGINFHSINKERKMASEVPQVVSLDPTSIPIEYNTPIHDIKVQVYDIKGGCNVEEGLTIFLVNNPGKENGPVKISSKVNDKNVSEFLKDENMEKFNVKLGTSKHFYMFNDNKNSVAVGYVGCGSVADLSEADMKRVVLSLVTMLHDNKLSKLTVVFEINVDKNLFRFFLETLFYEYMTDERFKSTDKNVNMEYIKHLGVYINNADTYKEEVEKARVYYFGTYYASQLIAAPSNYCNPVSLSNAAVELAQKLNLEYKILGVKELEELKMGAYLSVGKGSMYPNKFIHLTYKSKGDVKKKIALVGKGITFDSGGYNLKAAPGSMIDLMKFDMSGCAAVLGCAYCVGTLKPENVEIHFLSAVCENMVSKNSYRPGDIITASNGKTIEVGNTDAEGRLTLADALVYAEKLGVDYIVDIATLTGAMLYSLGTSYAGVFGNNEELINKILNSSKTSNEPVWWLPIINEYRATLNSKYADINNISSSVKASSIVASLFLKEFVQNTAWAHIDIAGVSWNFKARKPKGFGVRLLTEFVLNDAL

[6] = molecular target: Photoreceptor-specific nuclear receptor (Homo sapiens, UniProt Q9Y5X4); assay type: functional, cell-based;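 further: CHO-S cells with Gal4-NCOR and VP16-NR2E3 two-hybrid luciferase reporter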
[7] = NIH-3T3 fibroblast cytotoxicity, dose response, cytotoxicity control, cell-based, fluorescence, Alamar Blue, secondary assay (AID 2327); assay type: functional;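 further: NIH-3T3 mouse fibroblasts cultured with fluconazole at 8 µg/mL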
[8] = fluconazole-exposed Candida albicans growth modulators – fluorescence, retest, confirmation (AID 2467); assay type: functional, cell-based
[9] = molecular target: Dual specificity protein phosphatase 3 (Homo sapiens, UniProt P51452); assay: VHR phosphatase inhibition, dose response, selectivity assay for STEP inhibitor project, biochemical (AID 602374); assay type: functional; details: read-out: IC50_Mean
[10] = molecular target: Arf-GAP with SH3 domain, ANK repeat and PH domain-containing protein 1 (Homo sapiens, UniProt Q9ULH1); assay type: functional;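 further: biochemical fluorescence polarization dose–response screen measuring inhibition of ASAP1; ASAP1 GAP domain stimulating GTP hydrolysis by truncated human ARF1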
[11] = molecular target: Tyrosine-protein phosphatase non-receptor type 5 (Homo sapiens, UniProt P54829); assay: PTPN5 enzyme inhibition – biochemical, fluorescence intensity, uHTS hits, confirmation (AID 602372); assay type: functional; details: read-out: IC50_Mean
[12] = molecular target: Tyrosine-protein phosphatase non-receptor type 11 (Homo sapiens, UniProt Q06124); assay: PTPN11 enzyme inhibitors – biochemical, selectivity assay for STEP inhibitor project, dose response (AID 602367); assay type: functional; details: read-out: IC50_Mean
[13] = molecular target: T4, Sentrin-specific protease 8 (Homo sapiens, UniProt Q96LD8); assay type: functional
T4 sequence (Q96LD8 whole entry): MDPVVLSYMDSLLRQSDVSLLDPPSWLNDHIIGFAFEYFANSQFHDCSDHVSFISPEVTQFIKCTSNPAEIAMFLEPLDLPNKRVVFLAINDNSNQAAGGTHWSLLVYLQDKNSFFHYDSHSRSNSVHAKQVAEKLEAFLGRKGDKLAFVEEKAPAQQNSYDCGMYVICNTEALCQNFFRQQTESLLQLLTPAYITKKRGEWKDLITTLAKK

Protein RecA = molecular target: T5, Protein RecA (Mycobacterium tuberculosis, UniProt P9WHJ3); assay: Fluorescence Cell-Free Homogeneous Dose Retest to Identify Inhibitors of RecA-Intein Splicing Activity. [Related pubchem assays (depositor defined):AID2097, AID2223, AID489010, AID492950]; assay type: functional
T5 sequence (P9WHJ3 whole entry): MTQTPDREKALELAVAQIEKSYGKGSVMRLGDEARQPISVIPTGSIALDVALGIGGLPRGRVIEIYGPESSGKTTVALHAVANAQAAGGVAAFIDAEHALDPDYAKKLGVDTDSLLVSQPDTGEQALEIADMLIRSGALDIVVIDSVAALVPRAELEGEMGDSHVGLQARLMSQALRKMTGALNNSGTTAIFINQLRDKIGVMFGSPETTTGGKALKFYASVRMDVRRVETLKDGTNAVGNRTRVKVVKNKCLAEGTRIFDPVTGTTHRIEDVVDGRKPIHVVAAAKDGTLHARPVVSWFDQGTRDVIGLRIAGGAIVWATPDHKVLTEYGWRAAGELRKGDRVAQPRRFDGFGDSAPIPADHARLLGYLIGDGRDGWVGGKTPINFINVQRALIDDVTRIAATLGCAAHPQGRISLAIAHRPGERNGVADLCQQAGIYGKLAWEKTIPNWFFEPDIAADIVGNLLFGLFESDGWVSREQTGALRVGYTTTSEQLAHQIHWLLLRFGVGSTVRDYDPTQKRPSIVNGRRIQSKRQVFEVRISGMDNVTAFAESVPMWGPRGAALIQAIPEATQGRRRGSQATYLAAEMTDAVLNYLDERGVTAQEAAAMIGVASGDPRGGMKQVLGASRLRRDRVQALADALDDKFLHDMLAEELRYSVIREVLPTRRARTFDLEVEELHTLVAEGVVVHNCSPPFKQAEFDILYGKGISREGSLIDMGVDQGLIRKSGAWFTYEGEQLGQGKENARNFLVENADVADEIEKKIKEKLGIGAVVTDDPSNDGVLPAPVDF

[14] = molecular target: T6, Replicative DNA helicase DnaB (Mycobacterium tuberculosis, UniProt P9WMR3); assay: DnaB intein splicing inhibitors, dose response, biochemical, cell-free fluorescence (AID 449749); assay type: functional
T6 sequence (P9WMR3 whole entry): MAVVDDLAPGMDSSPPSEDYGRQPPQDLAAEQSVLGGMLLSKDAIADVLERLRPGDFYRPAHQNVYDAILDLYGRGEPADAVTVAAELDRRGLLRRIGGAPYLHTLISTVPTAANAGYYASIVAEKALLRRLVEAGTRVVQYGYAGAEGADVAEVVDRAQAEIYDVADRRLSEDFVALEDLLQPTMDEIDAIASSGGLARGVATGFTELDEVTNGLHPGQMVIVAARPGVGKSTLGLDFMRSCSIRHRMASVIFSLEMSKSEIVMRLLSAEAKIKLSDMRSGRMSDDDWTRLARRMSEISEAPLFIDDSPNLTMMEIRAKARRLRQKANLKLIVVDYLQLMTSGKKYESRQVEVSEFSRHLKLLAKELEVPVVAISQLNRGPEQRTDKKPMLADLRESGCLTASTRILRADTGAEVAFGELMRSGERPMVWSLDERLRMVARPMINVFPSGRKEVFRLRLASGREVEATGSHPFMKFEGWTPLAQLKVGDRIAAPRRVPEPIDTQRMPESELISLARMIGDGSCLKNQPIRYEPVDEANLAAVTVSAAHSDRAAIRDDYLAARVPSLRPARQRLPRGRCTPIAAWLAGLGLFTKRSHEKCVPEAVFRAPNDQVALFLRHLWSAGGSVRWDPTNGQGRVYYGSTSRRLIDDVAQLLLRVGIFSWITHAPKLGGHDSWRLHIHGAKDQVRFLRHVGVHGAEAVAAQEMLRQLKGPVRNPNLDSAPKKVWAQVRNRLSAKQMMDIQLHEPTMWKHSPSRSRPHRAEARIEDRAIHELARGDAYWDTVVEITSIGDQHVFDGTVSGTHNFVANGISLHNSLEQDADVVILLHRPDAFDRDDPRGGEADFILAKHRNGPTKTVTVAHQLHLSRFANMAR

[15] = molecular target: T4, Sentrin-specific protease 8; assay type: functional; remark: listed apart in the source

Sequence of Dual specificity protein phosphatase 3 (P51452 whole entry, the tested form may be a part): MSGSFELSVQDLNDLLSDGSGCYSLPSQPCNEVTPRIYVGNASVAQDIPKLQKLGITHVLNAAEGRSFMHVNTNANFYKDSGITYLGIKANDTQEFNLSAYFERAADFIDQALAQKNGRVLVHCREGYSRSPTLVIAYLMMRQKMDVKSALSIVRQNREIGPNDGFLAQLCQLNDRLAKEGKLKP
Sequence of Nonstructural protein 1 (Q194T2 whole entry): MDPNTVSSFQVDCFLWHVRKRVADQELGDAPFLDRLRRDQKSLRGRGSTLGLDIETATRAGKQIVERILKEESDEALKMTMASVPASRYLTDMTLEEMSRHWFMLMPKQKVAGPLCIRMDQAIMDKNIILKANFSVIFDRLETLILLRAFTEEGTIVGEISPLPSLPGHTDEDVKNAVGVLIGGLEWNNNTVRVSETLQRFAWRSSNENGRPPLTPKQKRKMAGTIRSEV
Sequence of Tyrosine-protein phosphatase non-receptor type 11 (Q06124 whole entry): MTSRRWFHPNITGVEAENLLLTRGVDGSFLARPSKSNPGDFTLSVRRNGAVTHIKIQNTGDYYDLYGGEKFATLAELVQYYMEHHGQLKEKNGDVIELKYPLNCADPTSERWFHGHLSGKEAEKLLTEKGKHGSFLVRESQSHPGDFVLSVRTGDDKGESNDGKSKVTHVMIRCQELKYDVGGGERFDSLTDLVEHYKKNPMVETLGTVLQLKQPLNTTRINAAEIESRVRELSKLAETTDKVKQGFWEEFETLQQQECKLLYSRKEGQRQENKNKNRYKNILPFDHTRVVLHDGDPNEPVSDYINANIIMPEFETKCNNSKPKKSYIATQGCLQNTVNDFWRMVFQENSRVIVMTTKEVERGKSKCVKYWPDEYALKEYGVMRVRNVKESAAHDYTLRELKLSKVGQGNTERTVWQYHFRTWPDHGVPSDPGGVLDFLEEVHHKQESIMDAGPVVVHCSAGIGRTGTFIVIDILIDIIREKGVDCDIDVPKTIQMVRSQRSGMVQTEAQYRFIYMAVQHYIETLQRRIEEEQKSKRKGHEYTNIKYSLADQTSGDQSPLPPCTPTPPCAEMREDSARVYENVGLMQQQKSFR
Sequence of Tyrosine-protein phosphatase non-receptor type 5 (P54829 whole entry): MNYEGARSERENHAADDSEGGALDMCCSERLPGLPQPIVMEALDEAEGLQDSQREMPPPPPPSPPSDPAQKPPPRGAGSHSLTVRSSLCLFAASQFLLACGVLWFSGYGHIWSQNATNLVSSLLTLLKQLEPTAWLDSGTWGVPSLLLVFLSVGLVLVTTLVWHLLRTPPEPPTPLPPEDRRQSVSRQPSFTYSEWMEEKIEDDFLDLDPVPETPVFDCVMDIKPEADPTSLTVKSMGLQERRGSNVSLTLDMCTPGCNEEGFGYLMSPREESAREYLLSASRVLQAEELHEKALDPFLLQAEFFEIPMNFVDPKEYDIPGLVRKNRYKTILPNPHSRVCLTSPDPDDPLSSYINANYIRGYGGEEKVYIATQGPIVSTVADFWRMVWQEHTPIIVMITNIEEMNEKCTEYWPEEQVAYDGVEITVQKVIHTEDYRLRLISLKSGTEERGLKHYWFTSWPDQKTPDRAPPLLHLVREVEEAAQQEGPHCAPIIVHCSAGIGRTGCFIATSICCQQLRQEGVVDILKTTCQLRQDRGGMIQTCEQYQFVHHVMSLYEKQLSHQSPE
Sequence of Photoreceptor-specific nuclear receptor (Q9Y5X4 whole entry, the tested form may be a part): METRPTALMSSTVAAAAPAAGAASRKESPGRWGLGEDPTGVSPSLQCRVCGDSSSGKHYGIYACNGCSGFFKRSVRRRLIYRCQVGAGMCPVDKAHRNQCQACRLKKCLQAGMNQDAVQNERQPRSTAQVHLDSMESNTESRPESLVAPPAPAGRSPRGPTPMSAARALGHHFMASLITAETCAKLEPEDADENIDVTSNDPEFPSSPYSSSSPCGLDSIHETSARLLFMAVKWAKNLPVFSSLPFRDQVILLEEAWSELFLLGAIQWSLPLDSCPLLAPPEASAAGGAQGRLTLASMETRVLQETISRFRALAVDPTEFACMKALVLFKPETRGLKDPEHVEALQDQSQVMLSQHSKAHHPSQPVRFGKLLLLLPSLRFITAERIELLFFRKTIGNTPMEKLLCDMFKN
Sequence of Arf-GAP with SH3 domain, ANK repeat and PH domain-containing protein 1 (Q9ULH1 whole entry, the tested form may be a part): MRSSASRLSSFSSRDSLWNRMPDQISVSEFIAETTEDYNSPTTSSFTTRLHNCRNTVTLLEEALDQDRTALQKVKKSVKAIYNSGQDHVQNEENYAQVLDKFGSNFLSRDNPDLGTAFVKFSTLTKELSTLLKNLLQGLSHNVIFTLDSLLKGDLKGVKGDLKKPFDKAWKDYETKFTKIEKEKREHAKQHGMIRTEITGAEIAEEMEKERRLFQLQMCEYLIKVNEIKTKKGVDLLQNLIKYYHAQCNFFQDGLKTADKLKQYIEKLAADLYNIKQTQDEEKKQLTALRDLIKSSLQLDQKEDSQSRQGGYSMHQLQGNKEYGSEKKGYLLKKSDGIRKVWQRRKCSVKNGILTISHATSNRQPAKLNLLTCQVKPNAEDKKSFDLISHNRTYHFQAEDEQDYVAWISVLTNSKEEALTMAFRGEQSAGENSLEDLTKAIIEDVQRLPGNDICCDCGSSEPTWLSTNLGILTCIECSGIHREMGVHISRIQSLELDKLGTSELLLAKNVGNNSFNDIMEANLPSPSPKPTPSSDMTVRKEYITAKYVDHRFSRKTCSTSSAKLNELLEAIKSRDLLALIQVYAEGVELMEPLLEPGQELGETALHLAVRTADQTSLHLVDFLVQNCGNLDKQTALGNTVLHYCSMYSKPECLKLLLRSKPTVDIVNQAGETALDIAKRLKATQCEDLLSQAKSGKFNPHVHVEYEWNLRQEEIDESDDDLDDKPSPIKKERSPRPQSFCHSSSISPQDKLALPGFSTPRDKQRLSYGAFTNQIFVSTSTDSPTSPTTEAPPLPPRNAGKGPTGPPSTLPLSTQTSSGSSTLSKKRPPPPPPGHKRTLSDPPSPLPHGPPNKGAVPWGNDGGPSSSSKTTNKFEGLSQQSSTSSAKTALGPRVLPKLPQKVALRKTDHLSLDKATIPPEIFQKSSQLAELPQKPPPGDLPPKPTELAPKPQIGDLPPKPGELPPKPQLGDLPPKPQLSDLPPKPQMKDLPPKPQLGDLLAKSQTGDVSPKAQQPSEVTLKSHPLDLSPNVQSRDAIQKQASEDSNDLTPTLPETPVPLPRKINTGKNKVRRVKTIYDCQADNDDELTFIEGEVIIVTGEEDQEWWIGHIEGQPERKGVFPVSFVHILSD

Compound: CN(C)c1ccc(/C=C/c2ccc3ccccc3[n+]2C)cc1
- EC50 [1]: 18.5 µM (active)
- EC50 (Streptococcus): 11.5 µM (active)
- IC50 (Nonstructural protein 1): 14.3 µM (active)
- EC50 [2]: < 0.1 µM (active)
- EC50 [3]: 6.7 µM (active)
- IC50 [4]: 46.8 µM (active)
- CC50 [5]: 28.9 µM (active)
- EC50 (Streptokinase A): > 150 µM (not active)
- IC50 (Leucine aminopeptidase): 88.4 µM (active)
- EC50 (cells): < 0.004 µM (active)
- IC50 [6]: 19.2 µM (inactive)
- EC50 [7]: > 150 µM (inactive)
- EC50 [8]: 0.035 µM (active)

Compound: NC(=NOC(=O)c1cccc2ccccc12)c1cccc([N+](=O)[O-])c1
- IC50 [9]: 5.16 µM (active)
- IC50 [10]: 20.9 µM (inactive)
- IC50 [11]: 29.7 µM (inactive)
- IC50 [12]: 5.9 µM (active)

Compound: O=C1C2=[N+]([O-])C3CCCCC3[N+]([O-])=C2c2ccccc21 (stereo unspecified)
- IC50 [13]: 9.46 µM (active)
- EC50 (Protein RecA): 9.54 µM (active)
- AC50 [14]: 6.38 µM (active)
- IC50 [15]: 2.98 µM (active)
